Experimental data as given in ChEMBL document CHEMBL3507680, “University of Dundee, Gates Library screen for HepG2 cell viability”.

assay: Human HepG2 cell viability assay in 384 well format; format: toxicity, cell-based; set-up: dose 125 nL, time 70.5 hour; concentration not given beside the values; settings: HepG2 cells, read-out: Inhibition

SMILES | cytotoxicity at 70.5 h
COc1ccc(CN(C)[C@@H]2CN(C(=O)c3cccnc3)C[C@H]2O)cc1 | 2.56%
Cc1c(C(=O)NCCCC(N)=O)sc2ccc(F)cc12 | 25.3%
CN(Cc1ccccc1-n1cccn1)C[C@@H]1CCCN2CCCC[C@H]12 | -8.12%
CCOc1ncccc1CNC(=O)N1CCCC1c1ccsc1 (centres undefined) | -0.934%
COc1cc(C(C)NCc2cscn2)ccc1SC(F)F (centres undefined) | 30.9%
Cc1ccncc1C(=O)N1C[C@H]2CN(CC3CCC3)C[C@@]2(C(=O)O)C1 | -8.6%
COc1cc(NC(=O)c2nc3ccccc3n(C)c2=O)cc(OC)c1 | -14.2%
Cc1cc(NS(=O)(=O)c2cnc3onc(C)c3c2)no1 | 0.112%
CCc1cc(N2CCC(Nc3ccc4nnc(C)n4n3)CC2)ncn1 | 2.09%
CCc1nnc(Nc2cccc(C3CCCN(CC(C)(C)C)C3)n2)s1 (centres undefined) | -10.7%
O=C(NCCO)c1coc(Cn2cnc3ccccc32)n1 | -1.94%
CC(C)N1CCCC(C(=O)NCCCc2cnn(C)c2)C1 (centres undefined) | 17.4%
Cc1cc(C(=O)Nc2ccc(N3CCCC3)cn2)ccc1-n1cncn1 | -1.17%
Cc1n[nH]c2c1C(c1cnn(C)c1)SCC(=O)N2 (centres undefined) | -6.84%
O=C(c1c2c(N3CCCC3)ncnc2n2ccccc12)N1CCCC1 | -11%
CC(O)CN(C)C(=O)CCNC(=O)OC(C)(C)C (centres undefined) | -3.37%
COc1cc(OC)nc(N2CCC3(CC2)OCCCC3O)n1 (centres undefined) | -5.5%
Cc1ccc(NC2CCN(C(=O)c3n[nH]c4ccccc34)CC2)nn1 | 1.27%
CC/C=C(\C)CN1CCC(CNC(=O)c2ccc(=O)[nH]c2)CC1 | -6.38%
NS(=O)(=O)Cc1cccc(C(=O)N2CCCC(n3cccn3)C2)c1 (centres undefined) | 4.57%
COc1cc(C(=O)N(C)C(C)Cc2cc(C)ccn2)ccn1 (centres undefined) | 25.8%
COCC(c1cccc(C(F)(F)F)c1)N(C)C(=O)c1ccncc1 (centres undefined) | 30.8%
O=S(=O)(CCNCc1cccc2c1OCCO2)N1CCOCC1 | 5.04%

SMILES | cytotoxicity at 70.5 h
O=C(CCN1CCOCC1)N1CCC(Cc2ccc(CO)cc2)C1 (centres undefined) | -2.12%
CCN1CCc2[nH]nc(C(=O)N3CCCC3C)c2C1 (centres undefined) | 4.99%
CCNC(=O)c1ccnc(NCC2COc3cc(OC)ccc3C2)c1 (centres undefined) | -3.26%
c1ccc(CO[C@@H]2CN(Cc3ccoc3)[C@@H]3COC[C@@H]32)nc1 | 13%
COc1ccccc1N1CC(NC(=O)c2cc(C(C)C)nn2C)CC1=O (centres undefined) | 12.6%
CNC(=O)[C@@H](C)NC(=O)c1cc(-c2ccc(F)cc2)c(C)s1 | -3.7%
NCCCNS(=O)(=O)Cc1ccc(Br)cc1 | -9.57%
Cc1cc(CNC(=O)c2cc(COc3cncc(Cl)c3)on2)n[nH]1 | 16%
Cc1ccc(NC(=O)NC(C)C(=O)N2CCS(=O)(=O)CC2)cc1 (centres undefined) | -7.48%
CCC(C(=O)NC1(C(N)=O)CCCC1)n1cccn1 (centres undefined) | -13.8%
Cc1cnc(N2CC[C@@H]3O[C@H](COCc4ccccn4)CC[C@@H]32)nc1 | -1.58%
O=C(Cc1ccc2c(c1)OCCO2)N1CCN(c2cnccn2)CC1 | -1.49%
CCc1nc(CCNC(=O)NC2CCN(C(C)C)C2)sc1C (centres undefined) | -3.64%
Cc1cncc(C(=O)NCC2COCc3c(C)nnn3C2)c1 (centres undefined) | 0.75%
COCCN1CCN(Cc2cnc(C)nc2)CC1 | -6.04%
Cc1cc(CN2CCCC(Cn3cncn3)C2)no1 (centres undefined) | 16%
CN1CC=C(c2noc(CCC(=O)N3CCc4ccccc43)n2)CC1 | -26.2%
Nc1nc2c(c(N3CCN(C(=O)c4cccs4)CC3)n1)CCCC2 | -2.27%
Cn1c(Cl)cnc1CN1CCCC1c1ccc2c(c1)OCCO2 (centres undefined) | 19.4%
COCCCN1CCC(C(=O)c2cc(F)ccc2F)CC1 | -0.37%
Cc1cccc(COC[C@@]23CCC[C@@H]2CN(S(=O)(=O)N(C)C)C3)n1 | -4.49%
COc1ccc(-c2cc(N)on2)cc1 | 13.8%
Cc1nc(CN(C)Cc2cc3c(cc2OC(F)F)OCO3)cs1 | -7.91%

SMILES | cytotoxicity at 70.5 h
CCc1c(C)nn(C)c1NC(=O)N1CCCOC(Cn2cccn2)C1 (centres undefined) | -4.64%
O=C(c1ccncc1Cl)N1CCN(Cc2ccco2)C(CCO)C1 (centres undefined) | 16.2%
Cn1cccc1C(=O)N1CCO[C@@H]2CN(Cc3nccs3)C[C@@H]2C1 | -6.7%
C=C(C)CNCC1(O)CCCN(Cc2ccc(F)c(F)c2)C1=O (centres undefined) | -1.61%
COCCS(=O)(=O)NC(C)c1cccc(-n2cccn2)c1 (centres undefined) | 0.445%
NC(=O)NCC(=O)N1CCCC(OCc2cccnc2)C1 (centres undefined) | 47.2%
CN(C)CC1CSCCCN1C(=O)c1ccc(-c2ccccc2)cc1 (centres undefined) | -0.605%
O=C(CCc1ccsc1)NCC1CCN(c2ccccc2)C1 (centres undefined) | 2.35%
COc1cccc2ccc(N3CCC(O)(c4ccc(C)cn4)CC3)nc12 | -21.5%
Cc1nc(N2CCOCC2)nc2c1COCC21CCN(CC2CC2)C1 (centres undefined) | 8.58%
CN1CCC2(COCCN(Cc3ccc4c(c3)OCO4)C2)C1 (centres undefined) | 13.5%
CN1[C@@H](C(=O)NCC2CC2)C[C@H]2CN(Cc3cccc(C#N)c3)C[C@H]21 | -13.8%
CCC(=O)Nc1nnc(CCOc2ccccc2)s1 | -2.19%
Cn1cnnc1S(=O)(=O)C1CCN(C(=O)c2ccsc2)CC1 | -9.56%
CS(=O)(=O)N1C[C@@H]2CC[C@H](C1)N(C(=O)CCn1cnc3ccccc31)C2 | 18.3%
O=C1CCCN1c1cccc(N2CCC(NCCc3cscn3)CC2)c1 | -4.03%
Cc1nn(-c2ccccc2)c(C)c1CNC1CCc2ncnn2C1 (centres undefined) | 1.33%
CC(=O)N1CCC(c2cccc(-c3cccc(C(=O)O)c3)n2)CC1 | -0.201%
CC(C)N1CCCC(CN(C)c2ccc(Cn3ccnc3)cn2)C1 (centres undefined) | -12.6%
Cn1c(=O)oc2ccc(NC(=O)N3CCSCC3)cc21 | -18.1%
CN1CC(Oc2ccccc2)=NC(SCC(=O)Nc2ccccc2Cl)=N1 | 5.43%
CCCc1nnc(SCC(=O)Nc2cc(C(C)(C)C)nn2C)[nH]1 | -13.2%
NC1(C(=O)NCC2CCCN(Cc3cccc4nonc34)C2)CCC1 (centres undefined) | -3.66%

SMILES | cytotoxicity at 70.5 h
CN(C)CC1(O)CCCN(c2noc(-c3ccccc3)n2)CC1 (centres undefined) | 6.79%
CCN1CCN(CC(O)c2ccc(Br)cc2)CC1 (centres undefined) | -1.54%
Cn1ccnc1CN1CCC(c2ccnc(-c3cccc(O)c3)c2)C1 (centres undefined) | -1.18%
CCOC1CCN(C(=O)c2ccc(-c3cccc(C)c3)[nH]c2=O)CC1 | -8.75%
CCn1nc(C)c2ccn(CC(=O)NC3CCCC3)c(=O)c21 | -1.39%
CC(=O)N1CCN(c2ncnc3cc4c(cc23)OCCO4)CC1 | -6.91%
CN1C(=O)CC[C@]12CC[C@@H](NCc1ccsc1)CC2 | -5.76%
CC(=O)N1CCC(NC(=O)NCCCc2cn[nH]c2C)CC1 | 0.436%
CC(C)NC(=O)C1CCc2nnc(CNC(=O)c3ccc(Cl)cc3Cl)n21 (centres undefined) | 1.45%
CCc1nnsc1C(=O)N1CCN(CC(O)CC)CC1 (centres undefined) | -10.3%
NC(=O)CCCNC(=O)Cc1cccc(I)c1 | -1.69%
O=C(c1cnn2c1OCCC2)N1CCC2(CC1)OCCO2 | -1.08%
NC(=O)CSc1ccccc1NC(=O)CC1C=CCC1 (centres undefined) | 27.1%
COc1cc(C(=O)N2CCC(c3n[nH]c(C4CC4)n3)CC2)ccc1C | 36.5%
COCC(=O)N1CC(c2n[nH]cc2C)C1 | -6.26%
CCCN1C[C@H]2CC[C@@H]1CN(Cc1cccc(-n3cccn3)c1)C2 | -0.983%
CCS(=O)(=O)c1ccc2c(c1)OCCCO2 | 0.078%
COC(=O)c1ccoc1CN(C)Cc1cc(OC)c(OC)cc1C | -12.1%
COc1ccc(C(=O)N(Cc2cnn(C)c2)C(C)C)cc1OC(F)F | -3.59%
CC(C)(C)CN(CCC#N)C(=O)Nc1cccc(N2CCNC2=O)c1 | -10.7%
CCCN1CCC(CC(=O)N2CC(C)(C)[C@@](C)(O)C2)CC1 | -2.11%
COc1cccc(CN2CCC(CO)(Cc3ccc(Cl)cc3)CC2)c1O | -5.98%
CN1CCN(S(=O)(=O)c2cccc(F)c2)Cc2cccnc21 | -2.06%

SMILES | cytotoxicity at 70.5 h
CC[C@@H](c1ccccc1)n1c(CCN)n[nH]c1=O | -5.25%
Cc1cc(NC(=O)CCCn2ccnc2C)nc(C(C)C)n1 | 0.794%
O=C(NCc1cccs1)c1nc2c(o1)CN(C(=O)c1cccnc1)C2 | 7.5%
O=C(O)C1(Cc2ccccc2Cl)CCN(c2ncccn2)CC1 | -10.5%
CS(=O)(=O)c1ccc(NC(=O)NC2(c3ccccc3)CCC2)cc1 | -8.88%
CCn1nc(C)c2nc(C(C)C)nc(N(C)Cc3ccco3)c21 | -17%
COCCN(CCN(C)C)C(=O)NC1CCc2ccccc2C1 (centres undefined) | -5.75%
CCC1CN(c2nnc(C)c(C)c2C#N)CCO1 (centres undefined) | 8.71%
Cc1nc(CSCCC(=O)NCc2ccncc2)cs1 | -6.44%
Cc1nn(C)c2ncc(NC(=O)N(C)Cc3cnn(C)c3)cc12 | -14%
CCn1cc(N2Cc3nc(N4CCC(O)CC4)ncc3C2=O)cn1 | 2.23%
c1c(CN2CCOCC2)nc2n1CCN(CC1CC1)C2 | -3.69%
Cc1ccc(OCC(C)NS(=O)(=O)N(C)C)cc1 (centres undefined) | -5.84%
Cc1ncsc1CNc1cccc(OCCN2CCCC2)c1 | 1.28%
CCNC(=O)N(C)C(c1ccccc1)c1ccccn1 (centres undefined) | -4.29%
CN(Cc1ccco1)C(=O)NCC(c1cccs1)N(C)C (centres undefined) | -11.2%
COc1ccccc1CC1CCCN1C(=O)c1cn[nH]c1C (centres undefined) | -4.05%
Cc1ccc(C(=O)NC2CCN(C(=O)Nc3ccccn3)CC2)o1 | 16.1%
COc1cc(Cc2nc3c([nH]2)CC(C)(C)CNC3=O)cc(OC)c1 | 8.47%
O=C1CSC(c2ccccc2)c2c(n(C3CCOCC3)[nH]c2=O)N1 (centres undefined) | -23%
CC(C)(C)c1cnc(CN(Cc2cccnc2)CC2CCCO2)o1 (centres undefined) | -12.3%
O=C1[C@H]2CN(Cc3nccs3)C[C@H]2CN1c1cncnc1 | -8.02%
